# Values quoted from earlier work as cited in patent publication US9763439B2, “Method of packaging food” (Universidad de Santiago de Chile, priority 2013, dated 2017).
# Conditions: thermoforming process (±140° C.) does not affect its stability
compound,measurement,value
C/C=C/C=C/C(=O)[O-].[K+] [potassium sorbate],temperature withstood,up to 270 °C
